Source: publication PMC5306082, “Physiologically based kinetic modeling of the bioactivation of myristicin” (Archives of Toxicology, 2016)
Like-named read-outs stand apart in the source and are kept apart here.

Key:
[1] = Sulfonation of 1′-hydroxymyristicin, human liver S9; assay type: in vitro ADME
Experimental: (§1) The formation of 1′-sulfoxymyristicin was determined using incubations containing male rat liver Sprague–Dawley or pooled gender human liver S9 proteins, PAPS as a cofactor, and GSH, which acts as a scavenger of the reactive carbocation formed due to the unstable nature of the 1′-sulfoxy metabolite in an aqueous environment (van den Berg et al. [2012]; Martati et al. [2011]; Al-Subeihi et al. [2011]). Incubation mixtures containing (final concentrations) 10 mM of GSH, 0.2 mM of PAPS, and 3 mg/ml of S9 proteins in 0.1 M potassium phosphate (pH 8.2) were pre-incubated for 1 min at 37 °C. After the pre-incubation, 1′-hydroxymyristicin dissolved in DMSO was added in final concentrations ranging between 10 and 6000 μM while keeping the final content of DMSO at 1 % (v/v). The reaction was terminated after 360 min of incubation by adding 25 μl (0.25 times the incubation volume) of ice-cold ACN. The formation of the GSH conjugate of 1′-sulfoxymyristicin was linear with time and S9 protein concentrations under the experimental conditions used. Blank incubations were performed in the absence of PAPS. Incubations were performed in triplicate. All samples were centrifuged for 5 min at 16,000×g, and the supernatant was stored at −20 °C until ultra-performance liquid chromatography (UPLC) analysis.
(§2) Quantification of 1′-sulfoxymyristicin was done using UPLC analysis as described for the estimation of 1′-sulfoxysafrole (Martati et al. [2011]). […] The gradient for analysis of the metabolite consisted of a mixture of ACN and ultrapure water containing 0.1 % (v/v) TFA. The flow rate was 0.6 ml/min, starting at 0 % ACN and increasing the percentage of ACN to 20 % over 0.2 min, followed by an increase to 30 % ACN over 4.3 min, then increasing to 100 % over 0.3 min, and keeping it at 100 % for 0.2 min, and finally decreasing to 0 % over 0.2 min and keeping it at 0 % for 0.8 min. Separation and purification of the GSH adduct of 1′-sulfoxymyristicin was performed by collecting the peak of the metabolite from the UPLC column. […]

[2] = Sulfonation of 1′-hydroxymyristicin, male rat liver S9; assay type: in vitro ADME
Experimental: as §1, §2

rat urine = test system: rat urine; set-up: method as in Beyer et al. [2006]; details: single oral dose 100 mg/kg bw myristicin, urine over 24 h; ref Beyer et al. [2006]; cited from earlier work
[3] = Microsomal conversion of myristicin, male rat liver microsomes; assay type: in vitro ADME
Experimental: (§3) First, it was determined which organs are involved in the biotransformation of myristicin in rat and human. For this purpose, liver, kidney, lung, and small intestine microsomes from male Sprague–Dawley rat and pooled gender human were used. Incubations were performed by adding myristicin to incubation mixtures containing 1 mg/mL of the microsomal protein preparations and 3 mM NADPH in 0.2 M Tris–HCl (pH 7.4). After 1 min of pre-incubation at 37 °C, myristicin (final concentration, 1000 μM) was added from a 100 times concentrated stock solution in DMSO so that the final DMSO content was 1 % (v/v). Incubations were carried out for 30 min after which the reactions were terminated by adding 25 µl (0.25 times the incubation volume) of ice-cold ACN. Samples were centrifuged for 5 min at 13,000×g, and the supernatant was stored at −20 °C until UPLC analysis. As metabolism of myristicin was observed only in incubations with liver microsomes for male rats and pooled gender human, the determination of kinetic constants for the formation of microsomal metabolites was performed only for the liver fractions. Incubations to determine kinetic constants were performed following the conditions described above using final concentrations of myristicin from 25 to 1000 μM for rat and human liver. In all incubations, the final concentration of DMSO, in which myristicin was dissolved, was kept at 1 % (v/v). The formation of different microsomal metabolites was linear with time and microsomal protein concentration under the conditions described. Blank incubations were performed in the absence of the cofactor NADPH. All incubations were performed in triplicate.
(§4) Secondary metabolism of the relevant 1′-hydroxy metabolite of myristicin was taken into account by determining the kinetic constants for its conversion in (a) glucuronidation, (b) sulfation, and (c) oxidation, again under conditions that allowed adequate definition of kinetic constants and with <10 % substrate conversion. Incubation samples were subjected to UPLC analysis that was performed as described previously (Punt et al. [2008]). Identification was achieved by comparing the UV spectra of the formed metabolites to the spectra of the synthesized 1′-hydroxymyristicin and 1′-oxomyristicin reference standards. Quantification of all formed metabolites was done by comparing the peak areas to those of calibration curves of the corresponding reference compounds, determined using UPLC with photodiode array detection (UPLC-PDA). The UPLC system was composed of a Waters (Waters, Milford, MA) Acquity solvent manager, sample manager, and photodiode array detector, equipped with Water Acquity UPLC BEH C18 column.
(§5) The gradient for analysis of microsomal metabolites was performed with 100 % ACN and ultrapure water containing 0.1 % (v/v) TFA. The flow rate was 0.6 ml/min. The gradient started at 10 % ACN, increased to 50 % ACN over 4 min, increased to 80 % over 0.5 min, followed by decrease to 10 % ACN over 0.5 min, and finally kept at 10 % for 1 min.

[4] = Microsomal conversion of myristicin, human liver microsomes; assay type: in vitro ADME
Experimental: as §3, §4, §5

New born mice B6C3F1 = details: male, injections on days 1, 8, 15, 22 after birth, ref Phillips et al. (1984), cited from earlier work
pregnant ICR mice = details: single dose of 6 mg myristicin by gastric intubation; ref Randerath et al. [1993]; cited from earlier work
[5] = ref EFSA [2012]; Zhou et al. [2007b]; cited from earlier work
[6] = uptake from GI tract, assumed from fast and complete absorption of safrole; ref Punt et al. [2008]; cited from earlier work
[7] = Metabolism of myristicin by rat small intestine, lung, kidney microsomes; assay type: in vitro ADME; details: 1000 μM myristicin, 1 mg/mL microsomal protein, NADPH, 30 min
Experimental: as §3, with “The formation of different microsomal metabolites was linear with time and microsomal protein concentration under the conditions described. Blank incubations were performed in the absence of the cofactor NADPH. All incubations were performed in triplicate.” left out

DNA = details: ref Zhou et al. [2007a]; Kobets et al. [2016]; Phillips et al. [1984]; Randerath et al. [1984]; cited from earlier work
[8] = test system: Cultured human HepG2 cells; details: harvested after 24 h, ref Zhou et al. (2007a), cited from earlier work
male B6C3F1 mice = details: total dose 3.75 or 4.75 µmol injected over 22 days, 12 or 18 months; ref Miller et al. [1983]; cited from earlier work
Mouse liver CD-1 = details: cited from earlier work; for pmol Adduct/mg DNA: female, livers 24 h after treatment
[9] = test system: freshly isolated rat hepatocytes in primary culture; details: 10^−6 to 10^−3 M; ref Howes et al. [1990]; cited from earlier work
[10] = Margin of exposure (MOE) risk assessment; details: BMDL10 of safrole
From the text: The margin-of-exposure (MOE) concept was applied to assess the possible risks for human health resulting from the daily exposure to myristicin (JECFA [2005]; EFSA [2005]; Barlow et al. [2006]; O’Brien et al. [2006]). The MOE is a dimensionless ratio based on a reference point representing a dose causing a low but measurable cancer incidence in experimental animals (e.g., a BMDL10), which is divided by the estimated daily intake in humans (EFSA [2005]). […] The estimated daily intake of safrole from spice and spice oil in the USA amounts to 0.001 mg/kg bw per day (WHO [2009]).

[11] = Metabolism of myristicin by human small intestine, lung, kidney microsomes; assay type: in vitro ADME; details: 1000 μM myristicin, 1 mg/mL microsomal protein, NADPH, 30 min
Experimental: as §3, with “The formation of different microsomal metabolites was linear with time and microsomal protein concentration under the conditions described. Blank incubations were performed in the absence of the cofactor NADPH. All incubations were performed in triplicate.” left out

rats or mice = details: chronic oral exposure to high doses, or male CD-1 mice preweaning; ref Borchert et al. [1973]; Drinkwater et al. [1976]; National Toxicology [2000]; cited from earlier work
experimental animals = details: tumor formation; ref van den Berg et al. [2011]; cited from earlier work
[12] = S9 protein yield 143 mg/g liver
[13] = formation of the metabolite from myristicin, NADPH, mean of three ± SD
[14] = formation of the metabolite from myristicin, Vmax/Km × 1000
[15] = from myristicin, scaled Vmax/Km
[16] = 80 mg/kg bw i.p., ref Randerath et al. (1984)
[17] = 400 mg/kg bw i.p., ref Randerath et al. (1984)

## C=CC(OS(=O)(=O)O)c1cc(OC)c2c(c1)OCO2 (stereo not shown) [1′-Sulfoxymyristicin, 1′-sulfoxymyristicin]
[1]; S9, PAPS, GSH trapping
  k, first-order rate constant for product formation: 16.3 × 10^−6 ml/min/mg protein
[1]; [12]
  k Scaled: 0.14 ml/hr/g tissue
[2]; S9, PAPS, GSH trapping
  k, first-order rate constant for product formation: 17.6 × 10^−6 ml/min/mg protein
[2]; [12]
  k Scaled: 0.15 ml/hr/g tissue

## C=CCc1cc(O)c(O)c(OC)c1 [5-Allyl-2,3-dihydroxyanisole, 5-allyl-2,3-dihydroxyanisole]
Rat urine
  metabolite in rat urine, percentage of the total dose: 67 % of the total dose
[3]; [13]
  Vmax: 1.3 ± 0.23 nmol min^−1 (mg microsomal or S9 protein)^−1
[3]; [14]
  In vitro catalytic efficiency: 39.394 μl min^−1 (mg microsomal or S9 protein)^−1
[3]; from myristicin, microsomal protein yield 35 mg/g liver
  Scaled Vmax, in vivo: 2.73 μmol/h/g tissue
[3]; [15]
  In vivo catalytic efficiency: 0.0827 ml/h/g tissue
[3]; male rat liver microsomes
  catalytic efficiency, fold higher than for formation of 3′-hydroxymyristicin: approximately sevenfold
[4]; [13]
  Vmax: 0.93 ± 0.13 nmol min^−1 (mg microsomal or S9 protein)^−1
[4]; [14]
  In vitro catalytic efficiency: 7.881 μl min^−1 (mg microsomal or S9 protein)^−1
[4]; from myristicin, microsomal protein yield 32 mg/g liver
  Scaled Vmax, in vivo: 1.786 μmol/h/g tissue
[4]; [15]
  In vivo catalytic efficiency: 0.0151 ml/h/g tissue

## C=CCc1cc(OC)c2c(c1)OCO2 [Myristicin, 1-allyl-5-methoxy-3,4 methylene-dioxybenzene]
New born mice B6C3F1; 36.5 mg/kg bw i.p.
  pmol Adduct/mg DNA: 7.8 pmol Adduct/mg DNA
Pregnant ICR mice
  level of myristicin adducts in fetal liver: 63 % of the total adducts
  level of myristicin adducts in maternal liver: 68 % of the total adducts
[5]
  in vitro genotoxicity: mutagenic
[6]
  absorption rate constant (ka): 1.0 h⁻¹
[7]
  metabolism of myristicin in small intestine, lung, or kidney microsomes: no detectable metabolism
DNA
  DNA adduct formation, result: positive results
[8]; 50 uM
  pmol Adduct/mg DNA: 0.017 pmol Adduct/mg DNA
[8]; 150 uM
  pmol Adduct/mg DNA: 0.049 pmol Adduct/mg DNA
[8]; 450 uM
  pmol Adduct/mg DNA: 0.165 pmol Adduct/mg DNA
Male B6C3F1 mice
  activity for the initiation of hepatic tumors: no detectable activity
Mouse liver CD-1; [16]
  pmol Adduct/mg DNA: 16.8 pmol Adduct/mg DNA
Mouse liver CD-1; [17]
  pmol Adduct/mg DNA: 49.5 pmol Adduct/mg DNA
[9]
  cytotoxicity: showed cytotoxicity
[10]; estimated daily intake of myristicin 0.0019 mg/kg bw per day from herbs and spices
  MOE: 1000–2684
[11]
  metabolism of myristicin in small intestine, lung, or kidney microsomes: no detectable metabolism

## C=CCc1ccc2c(c1)OCO2 [Safrole, safrole]
New born mice B6C3F1; 30.8 mg/kg bw i.p.
  pmol Adduct/mg DNA: 17.5 pmol Adduct/mg DNA
Rats or mice
  induction of hepatic tumors: induce hepatic tumors
DNA
  DNA adduct formation, result: positive results
[8]; 150 uM
  pmol Adduct/mg DNA: 0.083 pmol Adduct/mg DNA
[8]; 450 uM
  pmol Adduct/mg DNA: 0.102 pmol Adduct/mg DNA
Mouse liver CD-1; [16]
  pmol Adduct/mg DNA: 45.9 pmol Adduct/mg DNA
Mouse liver CD-1; [17]
  pmol Adduct/mg DNA: 203.4 pmol Adduct/mg DNA
Mouse liver CD-1; 400 mg/kg bw safrole, liver 140 days after treatment, ref Randerath et al. (1984)
  DNA adduct after 140 days (persistence): After admin. of dose 400 mg/kg bw safrole, livers were taken after 24 h, 28, 58, 98, and 140 days after each treatment, after 140 days adduct was 21 pmol/mg DNA
Mouse liver CD-1; mice, i.p. injection, ref Randerath et al. [1984]
  DNA adduct formation in the liver, times higher for safrole than myristicin: 2.7 times
[9]
  cytotoxicity: cytotoxicity
  unscheduled DNA synthesis (UDS): induced unscheduled DNA synthesis (UDS)
[10]; estimated daily intake of safrole 0.001 mg/kg bw per day from spice and spice oil in the USA
  MOE: 1900–5100
Experimental animals
  BMDL10: 1.9–5.1 mg/kg bw per day
